What all share (experiment): growth of human tumour cells (NCI), 48 h
Experiment [1] has as its system TK-10.
For experiment [2], the system named is K562.
The test system of experiment [3] is NCI-H23.
Experiment [4] relates to EKVX.
Experiment [5] concerns COLO 205.
Experiment [6] concerns SF-295.
The subject of experiment [7] is SW-620.
Experiment [8] has as its system UACC-62.
Experiment [9] has as its system CAKI-1.
Experiment [10] deals with LOX IMVI.
The subject of experiment [11] is M14.
In experiment [12] the test system is HOP-62.
For experiment [13], the system named is OVCAR-4.
Experiment [14] has as its system HCT-15.
The subject of experiment [15] is OVCAR-8.
The subject of experiment [16] is RXF 393.
The subject of experiment [17] is KM-20L2.

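How tested: cells in 96-well plates exposed to compound for 48 hours at five concentrations. Abbreviation: GI50, concentration required for 50% inhibition of growth.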 Active and inactive are the calls of the source. Cut-off read from the data, not from the text of the source: active = GI50 up to about 1.1 µM and inactive = higher.

Consider `N=c1oc2cc(O)c(O)cc2cc1C(N)=O`, for which the GI50 in experiment [1], in experiment [2], in experiment [3], in experiment [4], in experiment [5] and in experiment [6] was > 100 µM (inactive) in each case. The GI50 in experiment [7], in [8], in experiment [9], in experiment [10], in experiment [11] and in [12] was > 100 µM (inactive) each time. For the same compound, the GI50 in [13] is > 100 µM (inactive); in [14], more than 100 µM; in experiment [15] it was > 100 µM (inactive); in [16], > 100 µM (inactive); in experiment [17], > 100 µM (inactive).
For the compound `Cc1nc(N)nn1C1OCC(O)C(O)C1O` (stereo not drawn), the GI50 in [1], in [2], in experiment [3], in experiment [4], in experiment [5] and in [6] was > 100 µM (inactive) throughout. The GI50 in experiment [7], in [8], in [9], in experiment [11], in experiment [12] and in experiment [13] was > 100 µM (inactive) in each case. Further, the GI50 in experiment [14] is more than 100 µM; in experiment [15] it was > 100 µM (inactive); in [16], > 100 µM (inactive); in experiment [17], > 100 µM (inactive).
For `Cc1nc(-c2nc([N+](=O)[O-])c([N+](=O)[O-])[nH]2)cs1`, the GI50 in [1], in experiment [2], in [3], in [4], in [5] and in experiment [6] was > 100 µM (inactive) throughout. For the same compound, the GI50 in experiment [7], in experiment [8], in [9], in [10], in experiment [11] and in experiment [12] was > 100 µM (inactive) each time. Besides, the GI50 in experiment [13], in experiment [16] and in experiment [17] was > 100 µM (inactive) in each case.
In the case of `COc1cc([C@@H]2c3cc4c(cc3[C@@H](NC(=O)c3cccc(N)c3)C3COC(=O)[C@@H]32)OCO4)cc(OC)c1O` (stereo partly drawn), the GI50 in experiment [1] was 3.31 µM (inactive); in experiment [2], 2.11 µM (inactive); in experiment [3] it was 0.261 µM (active); in [4] it was 2.61 µM (inactive); in [5], 11 µM (inactive); in experiment [6], 0.262 µM (active). Moreover, the GI50 in experiment [7] was 0.391 µM (active); in experiment [8], 0.619 µM (active); in experiment [9] it was 0.333 µM (active); in experiment [10] it was 0.491 µM (active); in experiment [11] it was 1.26 µM (inactive); in [12] it was 0.0231 µM (active). The GI50 in [13] is 17.4 µM (inactive); in experiment [14] it was 1.99 µM; in experiment [15], 1.97 µM (inactive); in [16], 3.42 µM (inactive); in experiment [17], 2.97 µM (inactive).
As to `O=C1c2ccccc2C(=O)N1CCn1nc(-c2ccccc2)cc(-c2ccccc2)c1=O`, the GI50 in experiment [2] is 18.2 µM (inactive); in experiment [3], 43.2 µM (inactive); in experiment [4], 51.5 µM (inactive); in experiment [5], 63.2 µM (inactive); in experiment [6], 56 µM (inactive); in [7], > 100 µM (inactive). The GI50 was 51.2 µM (inactive) in [8]; > 100 µM (inactive) in experiment [11]; > 100 µM (inactive) in experiment [12]; 42.1 µM (inactive) in experiment [13]; 38.2 µM in [14]; 33.3 µM (inactive) in experiment [15]. Further, the GI50 in [16] and in experiment [17] was > 100 µM (inactive) each time.
In the case of `COc1cccc(-c2nccc3c(OCc4ccccc4)c(OC)c(OC)cc23)c1`, the GI50 is > 100 µM (inactive) in experiment [1]; 4.91 µM (inactive) in [2]; 4.09 µM (inactive) in experiment [3]; > 100 µM (inactive) in experiment [4]; > 100 µM (inactive) in [5]; > 100 µM (inactive) in experiment [6]. Moreover, the GI50 in experiment [7] is > 100 µM (inactive); in experiment [8] it was > 100 µM (inactive); in [10], > 100 µM (inactive); in experiment [11], > 100 µM (inactive); in experiment [12] it was > 100 µM (inactive); in [14] it was 4.72 µM. In addition, the GI50 in experiment [15] is > 100 µM (inactive); in [16], 4.51 µM (inactive); in experiment [17] it was > 100 µM (inactive).
Take `Oc1cccc2nc3cc(CN4CCOCC4)c(CN4CCOCC4)cc3nc12`: the GI50 was > 100 µM (inactive) in experiment [1]; 34.3 µM (inactive) in experiment [2]; > 100 µM (inactive) in [3]; > 100 µM (inactive) in [4]; 56.9 µM (inactive) in experiment [5]; 45.8 µM (inactive) in [6]. Also, the GI50 is 57.3 µM (inactive) in experiment [7]; 40.2 µM (inactive) in experiment [8]; > 100 µM (inactive) in experiment [9]; 38.3 µM (inactive) in [10]; 18.7 µM (inactive) in [11]; 52 µM (inactive) in experiment [12]. Moreover, the GI50 in [13] was 67.3 µM (inactive); in experiment [14], 37.4 µM; in [15], 44.7 µM (inactive); in experiment [16], 77.3 µM (inactive); in experiment [17] it was 48.9 µM (inactive).
`COc1ccc(C)cc1C1CCC(=O)O1` (stereo not drawn): the GI50 in [1], in [2], in [3], in [4], in experiment [5] and in experiment [6] was > 100 µM (inactive) throughout. For the same compound, the GI50 is > 100 µM (inactive) in [7]; > 100 µM (inactive) in [8]; > 100 µM (inactive) in [10]; > 100 µM (inactive) in experiment [11]; > 100 µM (inactive) in experiment [12]; more than 100 µM in [14]. Further, the GI50 in experiment [15], in [16] and in [17] was > 100 µM (inactive) in each case.
For `O=C1C(=O)N(c2cc(Cl)ccc2Cl)C(=O)C(=O)C1c1nc2ccccc2o1`, the GI50 was > 100 µM (inactive) in experiment [1]; 61.1 µM (inactive) in experiment [2]; > 100 µM (inactive) in experiment [3]; > 100 µM (inactive) in [4]; > 100 µM (inactive) in experiment [5]; > 100 µM (inactive) in experiment [6]. Besides, the GI50 in experiment [7] was > 100 µM (inactive); in experiment [8], > 100 µM (inactive); in experiment [9] it was > 100 µM (inactive); in experiment [10] it was > 100 µM (inactive); in [11] it was > 91.8 µM (inactive); in [12], > 100 µM (inactive). Further, the GI50 was > 100 µM (inactive) in experiment [13]; more than 100 µM in experiment [14]; > 100 µM (inactive) in experiment [15]; > 100 µM (inactive) in experiment [16]; > 100 µM (inactive) in experiment [17].
On to `C1=CC(=NN=P(c2ccccc2)(c2ccccc2)c2ccccc2)C=C1`, for which the GI50 in [1] was > 100 µM (inactive); in experiment [2], 64 µM (inactive); in experiment [3], > 100 µM (inactive); in experiment [4] it was > 100 µM (inactive); in experiment [5], > 100 µM (inactive); in [7], > 100 µM (inactive). The GI50 in experiment [8], in experiment [9], in [10], in experiment [11], in [12] and in [13] was > 100 µM (inactive) each time. The GI50 is more than 100 µM in experiment [14], > 100 µM (inactive) in [15], > 100 µM (inactive) in [16] and > 100 µM (inactive) in [17].
As to `c1ccc(N2N=C(c3ccco3)CC2c2ccco2)cc1` (stereo not drawn), the GI50 in [1] was > 100 µM (inactive); in experiment [2], 34.3 µM (inactive); in experiment [3], 66.5 µM (inactive); in experiment [4], 98.9 µM (inactive); in [5] it was > 100 µM (inactive); in experiment [6], 57.1 µM (inactive). In addition, the GI50 in experiment [7] was > 100 µM (inactive); in experiment [8] it was 91.6 µM (inactive); in [10], > 100 µM (inactive); in experiment [11], > 100 µM (inactive); in [12] it was > 100 µM (inactive); in experiment [13] it was > 100 µM (inactive). In addition, the GI50 is 69.8 µM in experiment [14], > 100 µM (inactive) in [15], 52.4 µM (inactive) in experiment [16] and > 100 µM (inactive) in experiment [17].
As to `C#C[C@H]1CCCCCC1O` (stereo partly drawn), the GI50 in [1], in [2], in [3], in [4], in [5] and in experiment [6] was > 100 µM (inactive) throughout. Besides, the GI50 in experiment [7] was 23.3 µM (inactive); in experiment [8], > 100 µM (inactive); in experiment [9], > 100 µM (inactive); in experiment [10], 29 µM (inactive); in experiment [11] it was > 100 µM (inactive); in experiment [12], > 100 µM (inactive). For the same compound, the GI50 in experiment [13] was > 100 µM (inactive); in experiment [14], more than 100 µM; in experiment [15], > 100 µM (inactive); in experiment [16] it was > 100 µM (inactive); in experiment [17], > 100 µM (inactive).
For the compound `COCC1N=C(c2ccc(OC)c(OCc3ccccc3)c2OC)O[C@H]1c1ccccc1` (stereo partly drawn), the GI50 in experiment [1] was 35.2 µM (inactive); in [2] it was 12.3 µM (inactive); in experiment [3] it was 17.7 µM (inactive); in experiment [4] it was 34 µM (inactive); in experiment [5], 18.1 µM (inactive); in [6], 25.6 µM (inactive). The GI50 in experiment [7] was 34.8 µM (inactive); in experiment [8], 15.8 µM (inactive); in experiment [10] it was 13.9 µM (inactive); in experiment [11] it was 14.6 µM (inactive); in experiment [12], 37.2 µM (inactive); in [13], 20.5 µM (inactive). Further, the GI50 in experiment [14] is 17.5 µM; in [15], 23.1 µM (inactive); in experiment [16], 29.3 µM (inactive); in experiment [17], 17.9 µM (inactive).

Values taken from ChEMBL document CHEMBL1201862, “PubChem BioAssay data set” (2004).
